Data from PMC12291851, “Hydrogen Sulfide (H2S)-Donating Formyl Peptide Receptor 2 (FPR2) Agonists: Design, Synthesis, and Biological Evaluation in Primary Mouse Microglia Culture” (Antioxidants, 2025).

Columns and labels:
[1] = system: organotypic hippocampal cultures; design: method as in PMID 37775304, PMID 37947648; settings: nanomolar doses; ref [24],[25]; cited from earlier work
[2] = Cell-free MTT-based H2S release assay; format: physicochemical; settings: 24 h incubation in MEM with 10% DMSO
Procedure: Solutions at different concentrations of each compound in 100 µL of serum-free MEM/10% DMSO with 0.5 mg/mL 3-(4,5-dimethylthiazol-2yl)-2,5-diphenyltetrazolium bromide (MTT) were incubated for 5 h or 24 h in a humidified incubator at 37 °C in 5% CO2 atmosphere. The experimental design comprised blank wells containing only medium and MTT, and a H2S calibration curve obtained by incubating nine solutions at decreasing concentrations (100 µM to 0.01 µM) of NaHS in medium and MTT. At the end of incubation time, the supernatant was removed, the […] crystals were dissolved in 100 µL DMSO/EtOH (1:1 v/v), and absorbance values were read using a Victor 3 plate reader (PerkinElmer, Shelton, CT, USA) at 570 nm. H2S values are expressed as mean ± S.E.M. of the results of three independent experiments conducted in triplicate, and were plotted using GraphPad Prism 7.
To decipher such results and considering the redox properties of H2S, we questioned if H2S released by our compounds in the culture media could interfere with the conversion of MTT (3-[4,5-dimethylthiazol-2-yl]-2,5-diphenyl tetrazolium bromide) to formazan, which is usually related to cell viability. Thus, we ran cell-free experiments in which MTT was used as the substrate to capture the reductive action of H2S. We found, in agreement with Gerő et al., that some of our thioureas and thioamides reduced MTT to formazan after 24 h incubation in MEM with 10% DMSO.

[3] = system: HepG2 hepatocarcinoma cells; assay: MTT cell viability assay, MTT added directly to treated media; format: cell-based, human; settings: 5% DMSO
Procedure: The cytotoxicity of our compounds was assessed using the well-established MTT assay. HepG2 hepatocarcinoma cells were cultured in Minimum Essential Medium (MEM) (Euroclone, Pero, Italy), supplemented with 10% fetal bovine serum (Euroclone, Pero, Italy), 100 U/mL penicillin, and 100 µg/mL streptomycin sulfate, at 37 °C in a humidified incubator in 5% CO2 atmosphere. For the MTT assays, these cells were cultured up to about 90% confluence and were then seeded at a concentration of 20,000 cells per well in 96-well plates. After 24 h, the culture medium was replaced with solutions at various concentrations of each compound in MEM/DMSO 5% (v/v). Control wells were incorporated in the experimental design, consisting of vehicle (MEM/DMSO 5%) and pure medium controls.
In the first round of cytotoxicity assays, 0.5 mg/mL MTT was added to each well 2 or 24 h from treatment and left to incubate for 3–5 h. In the second round of cytotoxicity assays, at 2 or 24 h after treatment, treated media were removed, the cells were washed once in PBS, and fresh medium containing 0.5 mg/mL MTT was added to each well and left to incubate for 3–5 h.
Subsequently, the supernatant was removed, and the formazan crystals were dissolved in DMSO/EtOH 1:1 (100 µL/well). Absorbance values were then recorded from each well using a Victor 3 plate reader (PerkinElmer, Shelton, CT, USA) at 570 nm. All presented data were obtained from 3 to 5 experiments performed in triplicate. Cell viability values are expressed as mean ± S.E.M. and were plotted using GraphPad Prism 7.
Next, we assessed H2S release in a biological environment using human hepatocarcinoma HepG2 cells as a model. The intracellular release of H2S was detected with the WSP-1 probe, a turn-on fluorescent probe that selectively and irreversibly reacts with H2S. Considering that a high micromolar concentration of the test compounds is required to obtain a robust fluorescent signal, we first evaluated the compounds’ cytotoxicity after 2 h and 24 h of incubation with the MTT assay in HepG2 cells. […] We accounted for this by adding a vehicle control with 5% DMSO and a control without DMSO to our experimental design.

HepG2 cells = assay: Intracellular H2S release with WSP-1 probe; format: cell-based, human
Procedure: All cell culture reagents were purchased from S.I.A.L. S.r.l. (Rome, Italy). WSP-1 (Washington State Probe-1, 3′-methoxy-3-oxo-3H-spiro[isobenzofuran-1,9′-xanthen]-6′-yl 2-(pyridine-2-yl-disulfanyl benzoate), was obtained from Cayman Chemical (Cayman, Ann Arbor, MI, USA). HepG2, human hepatocellular carcinoma cells, was obtained from American Type Culture Collection (ATCC, Bethesda, MD, USA). Human hepatocellular carcinoma cells (HepG2) were cultured in Minimum Essential Eagle’s Medium. This medium was supplemented with 10% (v/v) Fetal Bovine Serum, 1% (v/v) Glutamine and 1% (v/v) Penicillin-Streptomycin, 1% non-essential amino acids. Cells were cultivated at 37 °C with 5% CO2 at saturated humidity.
These experiments were carried out as already described. HepG2 cells were cultured up to about 90% confluence, and 24 h before the experiment cells were seeded into a 96-well flat bottom black plate (50,000 cells per well). After 24 h, the medium was replaced and cells were incubated at 37 °C for 30 min with a 10 mM solution of the fluorescent WSP-1 probe, which is highly sensitive for H2S detection. After incubation, the supernatant was removed and replaced with different concentrations (100, 200, and 300 µM) of the tested compounds dissolved in HBSS buffer. […] ADT 100 µM was used as a slow H2S-donor reference compound. Data were analyzed by one-way ANOVA for repeated measures, followed by post hoc Bonferroni’s multiple comparison test. Results are expressed as mean ± SEM of 3 independent experiments in triplicate. Statistical significance was accepted at a level of p < 0.05.
Next, we assessed the intracellular H2S release of thioureas and thioamides in HepG2 cells. The compounds were tested at different concentrations (100–300 μM) to evaluate if the release was dose-dependent. We also assayed ADT-OH and TIA as reference H2S-donors, and 3a as a negative control. The results were normalized to the fluorescence signal obtained with 100 μM ADT-OH.

FPR2 [4] = molecular target: T1, FPR2 (Homo sapiens, UniProt P25090); assay: Ca2+ mobilization (agonist activity) in FPR2-HL60 cells; settings: for fold less potent at FPR2 than the corresponding urea/amide: ratio of FPR2 EC50 vs 3b, 3c or 4b; for Ca2+ Mobilization HL60-FPR2 Efficacy: response to 5 nM WKYMVM = 100%
T1 sequence (P25090 1-351): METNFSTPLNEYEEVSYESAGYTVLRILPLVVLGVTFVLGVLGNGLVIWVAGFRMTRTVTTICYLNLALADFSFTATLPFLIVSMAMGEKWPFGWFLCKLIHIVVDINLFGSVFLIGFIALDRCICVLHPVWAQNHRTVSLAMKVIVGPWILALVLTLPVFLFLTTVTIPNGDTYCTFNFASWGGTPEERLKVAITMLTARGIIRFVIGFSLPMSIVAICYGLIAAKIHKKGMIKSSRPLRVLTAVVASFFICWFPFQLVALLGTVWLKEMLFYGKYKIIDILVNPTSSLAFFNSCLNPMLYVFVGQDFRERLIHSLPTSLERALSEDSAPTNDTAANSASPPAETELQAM

FPR2 [5] = molecular target: T1, FPR2; assay: cell-based
FPR2 [6] = molecular target: T1, FPR2; assay: FPR2 desensitization: inhibition of WKYMVM-induced Ca2+ mobilization in FPR2-HL60 cells; format: cell-based; design: expressed in transfected cells; host or cells: HL-60 cells; settings: 10 min preincubation, then 5 nM WKYMVM
Description: Finally, we assessed the ability of compounds to induce receptor desensitization at FPR2 by measuring the inhibition of Ca^2+ mobilization induced by subsequent treatment with a standard FPR2 agonist (IC50, Table 1) because FPR2 undergoes homologous desensitization after stimulation with agonists, resulting in functional antagonism (IC50, Table 1). […] We also evaluated the effects of the thiourea and thioamide derivatives on Ca^2+ mobilization in FPR1-HL60-transfected cells after stimulation with the FPR1 agonist (IC50, Table 1).

[7] = HepG2, tested concentrations 100-300 μM, 60 min

SMILES	absorbance signal (MTT reduction to formazan) indicative of H2S release [2]	MTT absorbance signal vs control ([3]; HepG2, 2 h incubation)	intracellular H2S release, WSP-1 fluorescence signal vs vehicle (HepG2 cells; [7])	EC50 (FPR2 [5])	fold less potent at FPR2 than the corresponding urea/amide (FPR2 [4])	Ca2+ Mobilization HL60-FPR2 Efficacy (FPR2 [4])	Ca2+ Mobilization HL60-FPR2 IC50 (FPR2 desensitization) (FPR2 [6])	intracellular H2S release, WSP-1 fluorescence signal vs vehicle (HepG2 cells; HepG2, at 200 and 300 μM)	other results
N#Cc1ccc(C[C@H](NC(=O)Nc2ccc(F)cc2)C(=O)N2CCc3ccccc32)cc1 [3b, (S)-1-[3-(4-cyanophenyl)-1-(indolin-1-yl)-1-oxopropan-2-yl]-3-(4-fluorophenyl)urea]	–	–	–	–	–	–	–	–	protective and anti-inflammatory properties [1]: beneficial protective and anti-inflammatory properties at nanomolar doses
N#Cc1ccc(C[C@H](NC(=O)Nc2ccc(F)cc2)C(=O)N2CCc3ccc(F)cc32)cc1 [3c, (S)-1-[3-(4-cyanophenyl)-1-(6-fluoroindolin-1-yl)-1-oxopropan-2-yl]-3-(4-fluorophenyl)urea]	–	–	–	–	–	–	–	–	protective and anti-inflammatory properties [1]: beneficial protective and anti-inflammatory properties at nanomolar doses
N#Cc1ccc(C[C@H](NC(=S)Nc2ccc(F)cc2)C(=O)NCC2(c3ccc(F)c(Cl)c3)CC2)cc1 [5a, (S)-N-[[1-(3-Chloro-4-fluorophenyl)cyclopropyl]methyl]-3-(4-cyanophenyl)-2-[3-(4-fluorophenyl)thioureido]propanamide]	did not give off any detectable absorbance signal	pronounced signal	comparable to vehicle	–	–	–	–	–	MTT absorbance signal vs control ([3]; HepG2, 24 h incubation): higher than the control; Ca2+ Mobilization HL60-FPR2 EC50 (FPR2 [4]; HL-60 cells transfected with human FPR2): inactive
N#Cc1ccc(C[C@H](NC(=S)Nc2ccc(F)cc2)C(=O)N2CCc3ccccc32)cc1 [5b, (S)-1-[3-(4-Cyanophenyl)-1-(indolin-1-yl)-1-oxopropan-2-yl]-3-(4-fluorophenyl)thiourea]	significant absorbance signal with slight dose-dependent effects	–	–	2200 ± 700 nM	more than 10 fold	65%	inactive	–	–
N#Cc1ccc(C[C@H](NC(=S)Nc2ccc(F)cc2)C(=O)N2CCc3ccc(F)cc32)cc1 [5c]	significant absorbance signal with slight dose-dependent effects	pronounced signal	–	12000 ± 32000 nM	more than 10 fold	105%	inactive	statistically significant increase in the fluorescent signal	–
N#Cc1ccc(C[C@H](NC(=S)Nc2ccc(Br)cc2)C(=O)N2CCc3ccccc32)cc1 [6b, (S)-1-(4-Bromophenyl)-3-[3-(4-cyanophenyl)-1-(indolin-1-yl)-1-oxopropan-2-yl]thiourea]	–	pronounced signal	–	1700 ± 700 nM	more than 10 fold	65%	–	statistically significant increase in the fluorescent signal	MTT absorbance signal vs control ([3]; HepG2, 24 h incubation): higher than the control; IC50 (FPR2 [6]): 2200 ± 400 nM
N#Cc1ccc(C[C@H](NC(=O)Nc2ccc(F)cc2)C(=S)NCC2(c3ccc(F)c(Cl)c3)CC2)cc1 [7a, (S)-N-[[1-(3-Chloro-4-fluorophenyl)cyclopropyl]methyl]-3-(4-cyanophenyl)-2-[3-(4-fluorophenyl)ureido]propanethioamide]	below the assay’s detection limit	–	significant fluorescence signal increase at all tested concentrations	2300 ± 800 nM	–	145%	submicromolar concentration	–	intracellular level of H2S vs reference H2S donor ADT (HepG2 cells; HepG2, at 200 and 300 μM, p < 0.001 vs. ADT): more than the reference H2S donor ADT; levels of H2S release in HepG2 cells (HepG2 cells; summary of WSP-1 results): very high levels of H2S release; IC50 (FPR2 [6]): 300 ± 100 nM
O=c1cc(-c2cccc(O)c2)ss1 [ADT-OH, 5-(5-hydroxyphenyl)-3H-1,2-dithiol-3-one, reference compound]	–	–	statistically significant increase in fluorescence	–	–	–	–	–	–
[Na+].[SH-] [NaHS, sodium hydrogen sulfide, reference compound]	strong dose-dependent signal	–	–	–	–	–	–	–	–
NC(=O)c1ccc(O)cc1 [TIA, 4-hydroxybenzamide, reference compound]	–	–	–	–	–	–	–	statistically significant increase in fluorescence	–
